Data from ChEMBL document CHEMBL5528002, “Identification of selective 5-LOX and FLAP inhibitors as novel anti-inflammatory agents by ligand-based virtual screening” (Eur J Med Chem, 2024).
Calls of active or inactive are those of the source. The calls are words filed in the database; no cut-off is given here.

Tests used:
[1] = molecular target: T1, Polyunsaturated fatty acid 5-lipoxygenase (Homo sapiens) (UniProt P09917); assay: Inhibition of human recombinant 5-LOX expressed in Escherichia coli BL21(DE3) assessed as enzyme remaining activity at 10 uM using arachidonic acid as substrate preincubated with compound for 15 mins followed by substrate and CaCl2 addition measured after 10 mins by RP-HPLC analysis relative to control; conditions: time 25.0 min
T1 sequence (whole entry): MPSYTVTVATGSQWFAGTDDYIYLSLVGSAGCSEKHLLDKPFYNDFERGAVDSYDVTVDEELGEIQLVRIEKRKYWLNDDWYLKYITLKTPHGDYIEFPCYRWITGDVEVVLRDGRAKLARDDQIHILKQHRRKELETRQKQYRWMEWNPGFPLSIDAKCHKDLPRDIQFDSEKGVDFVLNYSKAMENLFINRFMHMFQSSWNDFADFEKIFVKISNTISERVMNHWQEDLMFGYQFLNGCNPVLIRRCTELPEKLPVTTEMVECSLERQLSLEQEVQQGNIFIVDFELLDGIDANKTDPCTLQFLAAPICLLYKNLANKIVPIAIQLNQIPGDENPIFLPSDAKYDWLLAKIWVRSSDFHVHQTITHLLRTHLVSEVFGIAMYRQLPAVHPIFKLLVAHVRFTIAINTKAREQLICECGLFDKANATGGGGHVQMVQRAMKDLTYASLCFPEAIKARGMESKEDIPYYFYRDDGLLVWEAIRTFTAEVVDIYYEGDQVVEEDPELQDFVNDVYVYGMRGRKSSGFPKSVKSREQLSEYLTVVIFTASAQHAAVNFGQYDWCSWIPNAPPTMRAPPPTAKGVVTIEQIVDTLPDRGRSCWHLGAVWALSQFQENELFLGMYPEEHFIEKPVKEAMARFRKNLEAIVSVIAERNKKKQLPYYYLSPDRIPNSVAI

[2] = molecular target: T1, Polyunsaturated fatty acid 5-lipoxygenase (Homo sapiens); assay: Inhibition of 5-LOX in human Neutrophil assessed as enzyme remaining activity at 10 uM preincubated with compound for 15 mins followed by A23187 addition measured after 10 mins by RP-HPLC analysis relative to control; assay type: cell-based; conditions: time 25.0 min
[3] = molecular target: T1, Polyunsaturated fatty acid 5-lipoxygenase (Homo sapiens); assay: Inhibition of 5-LOX in human Neutrophil assessed as enzyme remaining activity at 10 uM using arachidonic acid as substrate preincubated with compound for 15 mins followed by substrate and A23187 addition measured after 10 mins by RP-HPLC analysis relative to control; assay type: cell-based; conditions: time 25.0 min
[4] = molecular target: T2, Prostaglandin E synthase (Homo sapiens) (UniProt O14684); assay: Inhibition of human mPGES-1 assessed as enzyme remaining activity at 10 uM relative to control
T2 sequence (whole entry): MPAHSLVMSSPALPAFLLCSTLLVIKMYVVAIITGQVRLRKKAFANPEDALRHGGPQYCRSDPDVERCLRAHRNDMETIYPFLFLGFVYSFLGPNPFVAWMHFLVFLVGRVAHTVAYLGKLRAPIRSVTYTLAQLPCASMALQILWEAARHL

[5] = molecular target: T3, Bifunctional epoxide hydrolase 2 (Homo sapiens) (UniProt P34913); assay: Inhibition of human sEH assessed as enzyme remaining activity at 10 uM relative to control
T3 sequence (whole entry): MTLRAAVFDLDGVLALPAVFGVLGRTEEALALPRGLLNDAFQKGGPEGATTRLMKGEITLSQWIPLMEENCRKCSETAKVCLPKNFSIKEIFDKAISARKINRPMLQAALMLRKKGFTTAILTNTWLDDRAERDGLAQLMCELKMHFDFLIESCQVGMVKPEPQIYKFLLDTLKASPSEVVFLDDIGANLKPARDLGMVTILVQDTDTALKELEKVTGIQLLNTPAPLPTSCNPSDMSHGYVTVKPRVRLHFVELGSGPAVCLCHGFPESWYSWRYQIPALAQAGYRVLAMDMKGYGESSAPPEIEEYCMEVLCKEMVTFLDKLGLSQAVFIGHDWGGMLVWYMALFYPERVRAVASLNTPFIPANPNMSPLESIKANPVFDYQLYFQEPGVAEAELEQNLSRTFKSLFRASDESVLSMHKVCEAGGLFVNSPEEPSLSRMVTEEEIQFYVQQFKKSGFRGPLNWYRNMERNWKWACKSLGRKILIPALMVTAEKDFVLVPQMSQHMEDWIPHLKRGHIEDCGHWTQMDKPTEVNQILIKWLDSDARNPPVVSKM

[6] = molecular target: T1, Polyunsaturated fatty acid 5-lipoxygenase (Homo sapiens); assay: Inhibition of 5-LOX in human Neutrophil at 10 uM preincubated with compound for 15 mins followed by A23187 addition measured after 10 mins by RP-HPLC analysis relative to control; assay type: cell-based; conditions: time 25.0 min
[7] = molecular target: T3, Bifunctional epoxide hydrolase 2 (Homo sapiens); assay: Inhibition of human sEH at 10 uM relative to control
[8] = molecular target: T2, Prostaglandin E synthase (Homo sapiens); assay: Inhibition of human mPGES-1 at 10 uM relative to control

Structure (SMILES) | Activity [1] | Activity [2] | Activity [3] | Activity [4] | Activity [5] | inhibition [6] | inhibition [7] | inhibition [8]
O=C(NCc1ccco1)Nc1cccc(-c2ccccc2)c1 | 96.4% | 97% | 92.4% | 88.1% | 91.4% | inactive | > 35% | inactive
O=C1C/C(=C/c2cccc(OCc3ccccc3)c2)C(=O)N1 | 94.4% | 112% | 67.1% | 83.1% | 128% | inactive | > 35% | inactive
O=C1Nc2ccccc2/C1=N/NS(=O)(=O)c1ccc(C(=O)O)cc1 | 105% | 93.1% | 88.2% | 94.2% | 111% | inactive | > 35% | inactive
CC1CCc2c(c(CC3CC(=O)NC(=O)C3)nn2-c2ccccc2)C1 (stereo not given) | 91.7% | 95.6% | 101% | 89.6% | 86.2% | inactive | > 35% | inactive
Cn1c(=O)c2nc(CCCc3nc4ccccc4[nH]3)[nH]c2n(C)c1=O | 98.5% | 113% | 98.3% | 90.9% | 92.7% | inactive | > 35% | inactive
CC(=O)c1cccc(NC(=O)Oc2ccc3c(C)cc(=O)oc3c2)c1 | 115% | 104% | 106% | 93.4% | 196% | inactive | > 35% | inactive
O=C1CCC(CCc2nc3ccccc3[nH]2)(c2ccccc2)C(=O)N1 (stereo not given) | 106% | 102% | 110% | 92.7% | 98.7% | inactive | > 35% | inactive
NS(=O)(=O)c1ccc(NCc2cnc3ccccc3c2)cc1 | 96.5% | 90.6% | 95.3% | 86.3% | 112% | inactive | > 35% | inactive
O=C1c2ccccc2C(=O)N1CCc1nc(-c2ccccc2)c[nH]1 | 90.4% | 100% | 99.2% | 92.5% | 41.5% | inactive | 58% | inactive
Cc1cc(=O)oc(C)c1C(=O)Oc1ccc2ccccc2c1 | 91.1% | 87.9% | 79.5% | 88.2% | 75.7% | inactive | > 35% | inactive
O=C(/C=C/c1ccccc1)CCc1c(O)c2ccccc2oc1=O | 67.6% | 47.6% | 60.1% | 52.6% | 108% | inactive | > 35% | < 40%
CC(=O)c1ccc(NCN2C(=O)c3ccccc3C2=O)cc1 | 97.2% | 72.8% | 91.8% | 47.6% | 102% | inactive | > 35% | > 50%
O=C(O)c1cc(O)c2cc(Cc3ccccc3)ccc2n1 | – | – | – | 98.3% | 147% | inactive | > 35% | inactive
O=C(c1ccc2ccccc2n1)C(O)c1ccc2ccccc2n1 (stereo not given) | 99.8% | 111% | 99.6% | – | – | inactive | > 35% | inactive
O=C1C(C(O)c2ccccc2)CCCC1C(O)c1ccccc1 (stereo not given) | 103% | 152% | 77.9% | 81.1% | 132% | inactive | > 35% | inactive
O=C(O)c1ccccc1C(=O)OC1CCc2ccccc2C1 (stereo not given) | 110% | 105% | 103% | 86.5% | 87.4% | inactive | > 35% | inactive
N=c1c2c(ncn1Cc1ccccc1)CCN(Cc1ccccc1)C2 | 96.2% | 82.3% | 80.1% | 93.9% | 91.6% | inactive | > 35% | inactive
N=c1[nH]nc2nc(CC(=O)c3ccc4ccccc4c3)c(=O)[nH]n12 | – | – | – | – | – | inactive | > 35% | inactive
O=C1C(=O)C(CCc2ccccc2)C(=O)/C1=C/c1ccccc1 (stereo not given) | 110% | 105% | 80.6% | 27.4% | 101% | inactive | > 35% | > 50%
O=C(c1nc2ccc(Cl)cc2nc1O)C(O)c1ccc2c(c1)OCO2 (stereo not given) | 81.2% | 101% | 90.7% | 89.4% | 93.8% | inactive | > 35% | inactive
O=C(O)c1cnc2cc(OCCc3ccc(F)cc3)ccc2c1O | 66.9% | 89.1% | 87.6% | 75.9% | 72.5% | inactive | > 35% | inactive
O=C(/C=C/c1ccccc1)NCCC1(O)C(=O)Nc2ccccc21 (stereo not given) | – | – | – | 98.2% | 88.2% | inactive | > 35% | inactive
Cc1ccc(Nc2nnc(-c3ccc4c(c3)OCO4)o2)c(C)c1 | 14% | 106% | 69.8% | 57.9% | 90.6% | inactive | > 35% | < 40%
N=C(N)/N=C(/C=C/c1ccccc1)CC1OC(=O)c2ccccc21 (stereo not given) | 58.3% | 85.5% | 68% | 40.9% | 92.9% | inactive | > 35% | > 50%
NNC(=O)CCc1ccc2ccc3ccccc3c2c1 | 75.1% | 80.2% | 93.1% | 80.5% | 92.9% | inactive | > 35% | inactive
O=C1N=C(Nc2nc3ccccc3[nH]2)OC1c1ccccc1 (stereo not given) | 94.4% | 121% | 102% | 83.6% | 99.9% | inactive | > 35% | inactive
Cc1ccn(C(=O)C2=Cc3ccccc3OC2)c(=N)c1 | – | – | – | 84.3% | 121% | inactive | > 35% | inactive
